{"source": "patent US7592005B2", "about": "“Monoclonal antibody” (Kirin Beer Kabushiki Kaisha, priority 2000, dated 2009)", "test_system": "IM9 cells", "assay": "Cellular cytotoxicity on human myeloma cell line IM9 (MTS)", "conditions": "read-out: IC50, cellular cytotoxicity, free maytansine derivative", "procedure": "In the same manner as in Example 11, the reactivity to the human myeloma cell line IM9 cell (ATCC CCL-159) was investigated. […] Thereafter, a solution of MTS (3-(4,5-dimethylthiazol-2-yl)-5-(3-carboxymethoxyphenyl)-2-(4-sulphophenyl)-2H-tetrazolium, Promega) was added to each well in amounts of 20 μl each, followed by culturing for an additional 2 hours. Subsequently, the absorbance at 490 nm of the surviving cells was assayed using a microplate reader (MTP-300, Corona Electric Co., Ltd.).", "data": [{"smiles": "COc1cc2cc(c1Cl)N(C)C(=O)C[C@H](OC(=O)[C@H](C)N(C)C(=O)CCSSC)[C@]1(C)O[C@H]1[C@H](C)[C@@H]1C[C@@](O)(NC(=O)O1)[C@H](OC)/C=C/C=C(\\C)C2", "note": "[May-SS-Me]", "values": [{"measurement": "IC50", "result": 10, "unit": "nM"}]}]}
